Experimental data from US9109048B2, “Inhibition of tumor growth” (priority 1998, dated 2015).
Square brackets hold non-standard residues; d marks the D form. Bip = N[C@@H](Cc1ccc(-c2ccccc2)cc1)C(=O)O

What was measured:
[1] = test system: C26 colon carcinoma; test: Murine C26 colon carcinoma model; assay type: in vivo, Balb/c mice
Protocol: The antitumoral activity of the peptide, Ad-LFB 14-31 A2,3,6,10,17,F7,R4,K11,L14-NH2, (NDDO1) was tested in a murine C26 colon carcinoma model established in syngenic Balb/c mice. C26 cells (5×10^6 cells in 50 μl) cells were inoculated subcutaneously on the abdomen of the mice (3 animals) and grown into proper size (20-30 mm^2) before treatment start. At day 7 the tumors were treated intra-tumorally with 0.5 mg/50 μl peptide once a day for three consecutive days and the progression was followed. […] In this mouse C26 tumor cells (5×10^6 cells in 50 μl) were re-inoculated subcutaneously three weeks after peptide treatment.

[2] = test system: A20 B-cell lymphoma tumor; test: Re-inoculation of A20 cells after successful peptide treatment; assay type: in vivo, Balb/c mice; details: no further administration of peptides
Text: b) Mice in which a A20 B-cell lymphoblast tumor had successfully been eradicated as described above were re-inoculated with 5×10^6 cells of A20 B-cell lymphoma tumor. Untreated mice served as a negative control. No further administration of peptides or any other anti-tumor agents took place.

[3] = test system: Meth A cells (murine sarcoma cell line); test: Cytotoxicity on Meth A cells, MTT method
Protocol: Peptide solutions (0.1 ml) were added and the plates incubated at 37° C. for 30 minutes, 4 hours or 24 hours. The cytotoxicity was measured using the MTT method (Mosmann et al., J. Immunol. (1986) 136, 2348-2357).
Cells in the growth phase were harvested and washed in fresh medium and injected subcutaneously into the abdominal region of the mice.
The cytotoxic effect of the peptides on different murine and human tumor cells were measured using the MTT method (Mosmann et al., J. Immunol. (1986) 136, 2348-2357).
MTT is a soluble tetrazolium salt yielding a yellow solution when prepared in media or salt solutions lacking phenol red. Dissolved MTT is converted to an insoluble purple formazan by cleavage of the tetrazolium ring by dehydrogenase enzymes. This water insoluble formazan can be solubilized using isopropanol or other solvents and the dissolved material is measured spectrophotometrically. The absorbance was measured as a function of concentration of converted dye.
Cells were maintained in […] medium containing 10% FBS, 1% L-glutamine and 0.1% penicillin and streptomycin. Cells to be used in the assay were grown to confluency, trypsinated and split to single cell suspension, counted and centrifuged at 1500 rpm for 10 min. […][…] of cell suspension was transferred to each well on a 96-well microtiter plate. The cells were stimulated by adding […] of various concentrations of peptides diluted with assay medium to each well. The final concentrations of peptide were for example: 5, 10, 20, 40, 60, 80, 100, and 200 mg/ml. […] As a negative control only medium was added to the cells, and as a positive control (100% killing) 1% triton X-100 was added. Following an incubation period of 4 h., 20 ml MTT dissolved in PBS at a concentration of 5 mg/ml was added to each well, and the plate was incubated further for 2 h. 130 ml of the supernatant were then removed and […] acid alcohol (0.04-0.1 N HCl in isopropanol) added to each well to dissolve the dark blue crystals. The plate was placed on a shaker for 1 h and read spectrophotometrically at 590 nm in a microtiterplate reader using the Softmaxâ program.

[4] = test system: Meth A tumor cells; test: Reinoculation of Meth A cells after successful treatment; assay type: in vivo, mice; details: reinoculation 1 month after successful treatment, no further treatment
[5] = test system: A20 B-cell lymphoblastoma; test: Adoptive transfer of spleen cells from cured mice; assay type: in vivo, Balb/c mice; details: donors cured with the peptide; versus naive donors
Protocol: Syngenic Balb/c mice were selected as a model system to investigate the long-term anti-tumor immunity conferred by an initial treatment with a lytic peptide (H2N-WKKWdipKKWK-COOH—Mod 39 (SEQ ID NO: 42)) against A20 B-cell lymphoblastoma. Tumour cells (5×10^6) were inoculated subcutaneously on the abdomen of the mice and grown into proper size (20-30 mm^2) before treatment start. The mice were treated intra-tumorally with 0.5 mg/50 μl peptide once a day for three consecutive days and the progression was followed. Mice that were successfully treated were selected as donors (treated donor) for adoptive transfer of spleen cells, 3 weeks after tumor eradication.
Day 1—Naive acceptor mice were subjected to a Total Body Irradiation (TBI) of 500 cGy in preparation for receiving adoptive transfer of immune cells from spleen donors.
Day 2—Single-cell suspensions of spleenocytes depleted of red blood cells from treated donor mice and naïve mice were prepared as previously described (Ward, B. A. et al., J. Immunology Aughust 1988, vol 141 p 1047), except that sterile H2O was used instead of ammonium chloride to eliminate red blood cells.
Donor spleen cells (approximately 40 million) were injected i.v. into the tail vein of acceptor mice according to the methods described in Bogen B. et al., Eur J Immunology, May 1983, vol 13(5), pages 353-359. […]

[6] = assay type: physicochemical
Text: Peptide W3714, with three additional tryptophan residues (a total of five tryptophan residues in the peptide), has decreased activity. […] This has been physically observed during MIC testing procedures when the peptide tended to precipitate at high concentrations.

In the case of “Ad-LFB 14-31 A2,3,6,10,17,F7,R4,K11,L14-NH2 [NDDO1]”, the “primary effect on C26 colon carcinoma” value ([1]; 3 animals, 0.5 mg/50 μl intra-tumorally once a day for three days) is reported as “In one mouse full tumor regression was obtained” and the “effect of re-inoculating C26 cells” value ([1]; re-inoculated three weeks after peptide treatment, no further treatment) is reported as “A regression of the tumor after an initial growth was obtained without any further treatment”.

For “H2N-FKCRRWQWRMKKLGAPSITCVRRAF-COOH (H-FKCRRWQWRMKKLGAPSITCVRRAF-OH; ends and bridges not checked) [Cyclic LFB, enzymatically cleaved fragment of bovine lactoferrin, from Morinaga, reference compound]”, the “tumor growth after re-inoculation of A20 cells” value [2] was “no further growth occurred”, the “concentration at which Meth A cells were effectively killed” value ([3]; Meth A cells 1×10^4/ml, 4 h incubation (FIG. 2)) was “higher than 0.8 mg/ml” and the “Meth A cells killed” value ([3]; at concentrations higher than 0.8 mg/ml) was “more than 99%”. For the same substance, the “tumor establishment after reinoculation of Meth A cells” value [4] was “some storm of adaptive immunity is shown”.

In the case of “H2N-KAAKKAbipKAAKAbipKKAA-COOH (H-KAAKKA[Bip]KAAKA[Bip]KKAA-OH; SMILES C[C@H](NC(=O)[C@H](C)NC(=O)[C@H](CCCCN)NC(=O)[C@H](CCCCN)NC(=O)[C@H](Cc1ccc(-c2ccccc2)cc1)NC(=O)[C@H](C)NC(=O)[C@H](CCCCN)NC(=O)[C@H](C)NC(=O)[C@H](C)NC(=O)[C@H](CCCCN)NC(=O)[C@H](Cc1ccc(-c2ccccc2)cc1)NC(=O)[C@H](C)NC(=O)[C@H](CCCCN)NC(=O)[C@H](CCCCN)NC(=O)[C@H](C)NC(=O)[C@H](C)NC(=O)[C@@H](N)CCCCN)C(=O)O) [Peptide C12]”, the “time until the re-inoculated A20 tumor completely disappeared” value [2] is reported as 6 days.

In the case of H2N-WKKWdipKKWK-COOH [Model 39], the “rejection of implanted A20 tumors in acceptors of spleen cells from cured mice” value [5] is reported as “able to reject implanted tumors”.

In the case of H2N-WKKWdipKKWK-COOH [L-Mod 39], the “time until the re-inoculated A20 tumor completely disappeared” value [2] is reported as 10 days.

For “H-FKWRRWWWRMKKLWA-OH [LFBW3,7,14, H2N-Phe-Lys-Trp-Arg-Arg-Trp-Trp-Trp-Arg-Met-Lys-Lys-Leu-Trp-Ala-COOH]”, the “solubility in aqueous solutions” value [6] was “less soluble in aquous solutions”.
